The results in this text go back to patent publication US20210238169A1, “PROCESS FOR PREPARING A COMPOUND OF FORMULA (XIII)” (PULMOCIDE LIMITED, priority 2014, published 2021).

Converted amounts (≈) assume the structure as drawn. Like-named read-outs stand apart in the source and are kept apart here.

In test [1] the test system is Aspergillus fumigatus isolates. Briefly: Broth microdilution assay of planktonic fungal growth (modified EUCAST). Format: cell-based. Conditions: Aspergillus fumigatus. On the procedure:
This assay was conducted using a modified method published by EUCAST (Rodriguez-Tudela et al., 2008). Spores of Aspergillus fumigatus (NCPF2010, NCPF7010 (Methionine 220 mutation), NCPF7099 (Glycine G54 mutation) from Public Health England, Wiltshire; TR34/L98H mutants from St Louis Hospital, Paris, France) were cultured in Sabouraud dextrose agar for 3 days. A stock spore suspension was prepared from a Sabouraud dextrose agar culture by washing with PBS-tween (10 mL; PBS containing 0.05% Tween-20, 100 U/mL Penicillin and 100 U/mL Streptomycin). The spore count was assessed using a Neubauer haemocytometer and then adjusted to 10^6 spores/mL with PBS. A working suspension of spores (2×10^5 spores/mL) was prepared in filter sterilised, BSA MOPS RPMI-1640 (50 mL; RPMI-1640 containing 2 mM L-glutamine, 0.5% BSA, 2% glucose, 0.165 M MOPS, buffered to pH 7 with NaOH). For the assay, BSA MOPS RPMI-1640 (50 μL/well) was added throughout the 384-well plate (Catalogue number 353962, BD Falcon, Oxford, UK) first. Test compounds (0.5 μL DMSO solution) were then added in quadruplicate using an Integra VIAFLO 96 (Integra, Zizers, Switzerland), and mixed well using a plate mixer. Subsequently 50 μL of the working spore suspension prepared above was added to all wells except non-spore control wells. For non-spore control wells, BSA MOPS-RPMI solution (50 μL/well) was added instead. The plate was covered with a plastic lid, and incubated (35° C. with ambient air) for 48 hr. The OD of each well at 530 nm was determined using a multi-scanner (Clariostar: BMG, Buckinghamshire, UK). The percentage inhibition for each well was calculated and the MIC50, MIC75 and MIC90 values were calculated from the concentration-response curve generated for each test compound.

Test [2] deals with Aspergillus fumigatus (ATCC 13073). Briefly: IFNγ, IL-17 and MDA levels in BALF of Aspergillus fumigatus infected mice. Format: in vivo. The settings on record: for ID50, IFNγ in BALF / ID50, IL-17 in BALF / ID50, MDA in BALF: Prophylactic Regimen. On the procedure:
Aspergillus fumigatus (ATCC 13073 [strain: NIH 5233], American Type Culture Collection, Manassas, Va., USA) was grown on Malt agar (Nissui Pharmaceutical, Tokyo, Japan) plates for 6-7 days at RT (24±1° C.). Spores were aseptically dislodged from the agar plates and suspended in sterile distilled water with 0.05% Tween 80 and 0.1% agar. On the day of infection, spore counts were assessed by haemocytometer and the inoculum was adjusted to obtain a concentration of 1.67×10^8 spores mL^−1 of physiological saline.
On day 0, animals were infected with the spore suspension (35 μL intra-nasally).
Test compounds were administered intra-nasally ([…]) once daily, 30 min before infection on day 0 and then on days 1, 2 and 3 (representing prophylactic treatment) or on days 1, 2 and 3 only (representing therapeutic treatment). For extended prophylactic treatment, test compounds (35 μL of a suspension of 0.0032 or 0.016 mg/mL in physiological saline) were administered intra-nasally once daily for seven days; then 30 min before infection on day 0, and thereafter, either on days 1, 2 and 3 after infection, or on day 0 only. The effects of these treatment paradigms were compared with those obtained when treatment was restricted to one day and 30 min before inoculation and then on days 1, 2 and 3 post infection; or reduced still further to one day and 30 min before infection only.
Six hours after the last dose, animals were anesthetised, the trachea was cannulated and BALF was collected. The total number of alveolar cells was determined using a haemocytometer, and the numbers of alveolar macrophages and neutrophils were determined by FACS analysis (EPICS® ALTRA II, Beckman Coulter, Inc., Fullerton, Calif., USA) using anti-mouse MOMA2-FITC (macrophage) or anti-mouse 7/4 (neutrophil), respectively, as previously reported (Kimura et al., 2013). The levels of IFN-γ and IL-17 in BALF, and IL-6 and TNFα in serum were determined using Quantikine® mouse IFN-γ, IL-17, IL-6 or TNF-α ELISA kit (R&D systems, Inc., Minneapolis, Minn., USA) respectively. MDA, an oxidative stress marker, was assayed using OxiSelect® TBARS Assay Kits (MDA Quantitation; Cell Biolabs Inc, San Diego, Calif., USA). Aspergillus GM in serum was determination using Platelia GM-EIA kits (Bio-Rad Laboratories, Redmond, Wash., USA). Cut-off index was calculated by the formula: Cut-off index=OD in sample/OD in cut-off control provided in kit. For tissue fungal load assays, 100 mg of lung tissue was removed aseptically and homogenized in 0.2 mL of 0.1% agar in sterile distilled water. Serially diluted lung homogenates were plated on Malt agar plates (50 μL/plate), and incubated at 24±1° C. for 72 to 96 h. The colonies of A. fumigatus on each plate was counted and the fungal titre presented as CFU per gram of lung tissue.

[3] abbreviates: isolate NCPF7099, broth microdilution, read-out: MIC75.
The mark [4] stands for this setting: prophylactic, 0.08 mg/mL intra-nasally.
[5] abbreviates: prophylactic, 0.4 mg/mL intra-nasally.
[6] abbreviates: prophylactic, 2 mg/mL intra-nasally.
Where [7] appears, read: therapeutic, 0.4 mg/mL intra-nasally.
The mark [8] stands for this setting: therapeutic, 2 mg/mL intra-nasally.
Where [9] appears, read: therapeutic, 10 mg/mL intra-nasally.

With `CC[C@@H]([C@H](C)O)n1ncn(-c2ccc(N3CCN(c4ccc(OC[C@@H]5CO[C@@](Cn6cncn6)(c6ccc(F)cc6F)C5)cc4)CC3)cc2)c1=O` [Posaconazole], the MIC in test [1] (read-out: MIC75) was determined as 0.15 µM (≈ 0.105 µg/mL). Further, in test [1] (setting [3]), the MIC was determined as 0.112 µM (≈ 0.0785 µg/mL). For the same molecule, in test [2], the “ID50, IFNγ in BALF” value worked out at 220 µg/mL (≈ 314 µM); the “ID50, IL-17 in BALF” value turned out to be 610 µg/mL (≈ 870 µM); the “ID50, MDA in BALF” value was found to be 690 µg/mL (≈ 985 µM).
For `Cc1cc(N2CCN(c3ccc(C(=O)Nc4ccc(F)cc4)cc3)CC2)ccc1OC[C@@H]1CO[C@@](Cn2cncn2)(c2ccc(F)cc2F)C1` [Compound (I), 4-(4-(4-(((3R,5R)-5-((1H-1,2,4-triazol-1-yl)methyl)-5-(2,4-difluorophenyl)tetrahydrofuran-3-yl)methoxy)-3-methylphenyl)piperazin-1-yl)-N-(4-fluorophenyl)benzamide], the MIC was 0.0136 µM (≈ 0.00929 µg/mL) in test [1] (NCPF2010, read-out: MIC75); 0.0567 µM (≈ 0.0387 µg/mL) in test [1] (read-out: MIC75); 0.0165 µM (≈ 0.0113 µg/mL) in test [1] (setting [3]). Besides, the “ID50, IFNγ in BALF” value in test [2] is less than 80 µg/mL. In addition, the “ID50, IL-17 in BALF” value in test [2] came out at 74 µg/mL (≈ 108 µM). The “ID50, MDA in BALF” value in test [2] was determined as 110 µg/mL (≈ 161 µM). Further, the “IFNγ concentration in BALF” value was found to be 3.7 ± 1.7 pg/mL in test [2] (setting [4]); 3.0 ± 0.8 pg/mL in test [2] (setting [5]); 2.5 ± 0.3 pg/mL in test [2] (setting [6]); 4.3 ± 2.2 pg/mL in test [2] (setting [7]); 3.3 ± 0.8 pg/mL in test [2] (setting [8]); 2.1 ± 0.3 pg/mL in test [2] (setting [9]). The “IFNγ in BALF, % Inhibition” value in test [2] (setting [4]) is listed as 60%; in test [2] (setting [5]) it was 67%; in test [2] (setting [6]), 73%; in test [2] (setting [7]), 53%; in test [2] (setting [8]), 64%; in test [2] (setting [9]) it was 77%. Further, the “IL-17 concentration in BALF” value in test [2] (setting [4]) was determined as 9.8 ± 5.3 pg/mL; in test [2] (setting [5]) it was 6.7 ± 4.9 pg/mL; in test [2] (setting [6]), 3.2 ± 0.8 pg/mL; in test [2] (setting [7]) it was 8.5 ± 2.9 pg/mL; in test [2] (setting [8]) it was 4.0 ± 0.8 pg/mL; in test [2] (setting [9]), 2.9 ± 0.7 pg/mL. The “IL-17 in BALF, % Inhibition” value is given as 51% in test [2] (setting [4]); 66% in test [2] (setting [5]); 84% in test [2] (setting [6]); 57% in test [2] (setting [7]); 80% in test [2] (setting [8]); 85% in test [2] (setting [9]). In addition, the “MDA concentration in BALF” value in test [2] (setting [4]) is 0.96 ± 0.32 µg/mL; in test [2] (setting [5]), 0.57 ± 0.22 µg/mL; in test [2] (setting [6]), 0.34 ± 0.05 µg/mL; in test [2] (setting [7]) it was 0.45 ± 0.10 µg/mL; in test [2] (setting [8]) it was 0.37 ± 0.10 µg/mL; in test [2] (setting [9]), 0.25 ± 0.05 µg/mL. The “MDA in BALF, % Inhibition” value in test [2] (setting [4]) is 47%; in test [2] (setting [5]), 68%; in test [2] (setting [6]), 81%; in test [2] (setting [7]) it was 75%; in test [2] (setting [8]) it was 79%; in test [2] (setting [9]), 86%.
In the case of `C[C@@H](c1ncncc1F)[C@](O)(Cn1cncn1)c1ccc(F)cc1F` [Voriconazole], the MIC is more than 2.86 µM in test [1] (read-out: MIC75) and 0.0967 µM (≈ 0.0338 µg/mL) in test [1] (setting [3]).
